Measured values reported in article PMC4770715, “LIM kinase inhibitors disrupt mitotic microtubule organization and impair tumor cell proliferation” (Oncotarget, 2015).

How the values were obtained:
Experiment in all cases: biochemical
Design in all cases: KINOMEscan active-site competition binding, percent of control (100 = no competition)
Details in all cases: competition binding, percent control
[1] = biological target: TNIK (Homo sapiens, UniProt Q9UKE5)
[2] = biological target: AKT1 (Homo sapiens, UniProt P31749)
[3] = biological target: T1, JAK3(JH1domain-catalytic) (Homo sapiens, UniProt P52333)
T1 construct: JH1domain-catalytic

[4] = biological target: CAMK2B (Homo sapiens, UniProt Q13554)
[5] = biological target: NEK6 (Homo sapiens, UniProt Q9HC98)
[6] = biological target: T2, TRKA (Homo sapiens, UniProt P04629)
T2 construct: gene NTRK1

[7] = biological target: MAP3K2 (Homo sapiens, UniProt Q9Y2U5)
[8] = biological target: T3, p38-delta (Homo sapiens, UniProt O15264)
T3 construct: gene MAPK13

[9] = biological target: T4, MEK3 (Homo sapiens, UniProt P46734)
T4 construct: gene MAP2K3

[10] = biological target: TAOK3 (Homo sapiens, UniProt Q9H2K8)
[11] = biological target: PIM2 (Homo sapiens, UniProt Q9P1W9)
[12] = biological target: NEK9 (Homo sapiens, UniProt Q8TD19)
[13] = biological target: T5, RPS6KA5(Kin.Dom.2-C-terminal) (Homo sapiens, UniProt O75582)
T5 construct: Kin.Dom.2-C-terminal

[14] = biological target: AKT3 (Homo sapiens, UniProt Q9Y243)
[15] = biological target: T6, NDR2 (Homo sapiens, UniProt Q9Y2H1)
T6 construct: gene STK38L

[16] = biological target: PDGFRA (Homo sapiens, UniProt P16234)
[17] = biological target: T7, TYK2(JH1domain-catalytic) (Homo sapiens, UniProt P29597)
T7 construct: JH1domain-catalytic

[18] = biological target: T8, PRP4 (Homo sapiens, UniProt Q13523)
T8 construct: gene PRPF4B

[19] = biological target: T9, HPK1 (Homo sapiens, UniProt Q92918)
T9 construct: gene MAP4K1

[20] = biological target: ACVRL1 (Homo sapiens, UniProt P37023)
[21] = biological target: SIK2 (Homo sapiens, UniProt Q9H0K1)
[22] = biological target: T10, ERK4 (Homo sapiens, UniProt P31152)
T10 construct: gene MAPK4

[23] = biological target: FLT4 (Homo sapiens, UniProt P35916)

T6 sequence (Q9Y2H1 whole entry): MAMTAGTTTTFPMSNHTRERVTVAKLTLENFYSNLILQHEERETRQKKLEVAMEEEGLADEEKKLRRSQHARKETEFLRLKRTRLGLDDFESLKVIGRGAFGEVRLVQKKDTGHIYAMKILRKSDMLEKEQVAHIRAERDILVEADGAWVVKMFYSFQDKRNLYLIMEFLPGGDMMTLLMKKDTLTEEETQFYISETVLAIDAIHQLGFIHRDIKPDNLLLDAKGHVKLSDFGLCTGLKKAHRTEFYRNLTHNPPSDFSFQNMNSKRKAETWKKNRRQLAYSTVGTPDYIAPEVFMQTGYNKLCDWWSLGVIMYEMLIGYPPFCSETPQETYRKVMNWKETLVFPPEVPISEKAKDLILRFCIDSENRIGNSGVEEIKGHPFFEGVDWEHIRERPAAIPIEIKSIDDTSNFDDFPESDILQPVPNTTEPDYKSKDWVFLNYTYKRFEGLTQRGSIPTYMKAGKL
T5 sequence (O75582 whole entry): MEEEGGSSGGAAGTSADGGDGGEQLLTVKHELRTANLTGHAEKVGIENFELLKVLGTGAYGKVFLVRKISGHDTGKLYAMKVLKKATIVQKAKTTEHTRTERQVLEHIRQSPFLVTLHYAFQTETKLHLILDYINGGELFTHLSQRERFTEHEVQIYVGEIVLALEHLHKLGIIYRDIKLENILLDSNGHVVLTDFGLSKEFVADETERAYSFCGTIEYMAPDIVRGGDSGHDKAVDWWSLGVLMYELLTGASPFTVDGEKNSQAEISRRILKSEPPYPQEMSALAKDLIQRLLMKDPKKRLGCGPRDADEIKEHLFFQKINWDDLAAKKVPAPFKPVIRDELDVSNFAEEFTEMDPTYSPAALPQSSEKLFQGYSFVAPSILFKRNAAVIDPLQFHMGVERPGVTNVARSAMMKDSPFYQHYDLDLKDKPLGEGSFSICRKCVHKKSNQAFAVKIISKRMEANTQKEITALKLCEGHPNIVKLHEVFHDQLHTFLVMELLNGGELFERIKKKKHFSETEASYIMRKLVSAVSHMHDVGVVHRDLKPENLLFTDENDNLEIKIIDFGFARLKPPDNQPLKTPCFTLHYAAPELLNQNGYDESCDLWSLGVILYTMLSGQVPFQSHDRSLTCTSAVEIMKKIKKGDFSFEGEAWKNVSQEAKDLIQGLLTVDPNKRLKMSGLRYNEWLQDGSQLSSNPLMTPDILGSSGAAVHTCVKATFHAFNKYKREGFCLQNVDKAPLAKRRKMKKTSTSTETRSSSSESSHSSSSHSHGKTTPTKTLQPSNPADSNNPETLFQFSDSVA
Chain of AKT3 (Q9Y243 whole entry): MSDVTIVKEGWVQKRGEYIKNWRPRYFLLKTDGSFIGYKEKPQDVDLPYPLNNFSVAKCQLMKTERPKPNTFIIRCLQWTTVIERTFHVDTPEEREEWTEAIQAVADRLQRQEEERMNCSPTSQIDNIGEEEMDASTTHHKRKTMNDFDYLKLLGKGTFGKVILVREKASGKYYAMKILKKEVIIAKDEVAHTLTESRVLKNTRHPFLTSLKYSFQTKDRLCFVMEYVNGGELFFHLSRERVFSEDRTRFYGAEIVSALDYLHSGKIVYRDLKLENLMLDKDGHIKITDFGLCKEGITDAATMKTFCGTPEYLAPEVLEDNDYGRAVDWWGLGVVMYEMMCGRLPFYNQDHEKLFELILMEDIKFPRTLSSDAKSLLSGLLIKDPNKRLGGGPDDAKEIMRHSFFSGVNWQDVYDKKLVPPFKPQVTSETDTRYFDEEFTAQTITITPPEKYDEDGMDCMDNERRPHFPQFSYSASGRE
Chain of PDGFRA (P16234 whole entry): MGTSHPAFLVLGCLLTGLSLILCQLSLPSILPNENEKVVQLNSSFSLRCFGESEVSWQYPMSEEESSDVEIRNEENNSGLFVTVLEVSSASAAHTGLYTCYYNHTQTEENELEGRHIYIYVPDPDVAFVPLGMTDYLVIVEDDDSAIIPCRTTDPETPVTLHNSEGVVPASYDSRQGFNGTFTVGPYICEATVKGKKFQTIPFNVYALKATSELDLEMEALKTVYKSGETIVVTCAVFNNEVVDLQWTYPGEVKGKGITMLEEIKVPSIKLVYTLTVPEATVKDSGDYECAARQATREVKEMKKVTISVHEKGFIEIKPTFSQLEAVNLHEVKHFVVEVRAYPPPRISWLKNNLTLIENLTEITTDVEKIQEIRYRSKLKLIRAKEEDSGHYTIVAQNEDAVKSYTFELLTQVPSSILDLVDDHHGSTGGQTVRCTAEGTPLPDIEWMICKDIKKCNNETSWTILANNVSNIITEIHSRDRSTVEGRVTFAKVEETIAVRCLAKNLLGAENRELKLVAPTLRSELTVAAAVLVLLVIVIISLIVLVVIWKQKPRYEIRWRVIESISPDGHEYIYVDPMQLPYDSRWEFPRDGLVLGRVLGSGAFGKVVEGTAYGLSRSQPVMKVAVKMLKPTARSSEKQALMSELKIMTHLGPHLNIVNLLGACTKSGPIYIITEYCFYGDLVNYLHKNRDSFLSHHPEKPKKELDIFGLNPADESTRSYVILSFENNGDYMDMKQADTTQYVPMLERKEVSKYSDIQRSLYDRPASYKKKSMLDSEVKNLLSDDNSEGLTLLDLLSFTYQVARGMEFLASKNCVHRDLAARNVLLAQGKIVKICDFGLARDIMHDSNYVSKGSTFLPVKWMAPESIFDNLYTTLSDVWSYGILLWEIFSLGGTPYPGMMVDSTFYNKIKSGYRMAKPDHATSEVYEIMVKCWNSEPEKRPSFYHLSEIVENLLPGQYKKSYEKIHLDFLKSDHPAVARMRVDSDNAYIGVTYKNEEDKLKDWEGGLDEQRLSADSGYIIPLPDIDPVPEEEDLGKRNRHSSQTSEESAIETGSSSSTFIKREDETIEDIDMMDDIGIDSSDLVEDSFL
T3 sequence (O15264 whole entry): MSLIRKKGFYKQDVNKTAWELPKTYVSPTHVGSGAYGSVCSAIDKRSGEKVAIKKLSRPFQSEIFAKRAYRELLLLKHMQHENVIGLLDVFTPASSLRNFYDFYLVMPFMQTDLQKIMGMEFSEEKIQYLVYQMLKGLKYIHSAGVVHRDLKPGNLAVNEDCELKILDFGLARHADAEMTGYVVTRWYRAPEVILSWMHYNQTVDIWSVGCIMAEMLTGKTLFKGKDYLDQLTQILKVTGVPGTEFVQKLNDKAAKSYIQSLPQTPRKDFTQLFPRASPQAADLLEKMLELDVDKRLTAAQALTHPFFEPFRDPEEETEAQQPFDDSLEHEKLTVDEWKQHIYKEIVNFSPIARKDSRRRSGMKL
Chain of NEK9 (Q8TD19 whole entry): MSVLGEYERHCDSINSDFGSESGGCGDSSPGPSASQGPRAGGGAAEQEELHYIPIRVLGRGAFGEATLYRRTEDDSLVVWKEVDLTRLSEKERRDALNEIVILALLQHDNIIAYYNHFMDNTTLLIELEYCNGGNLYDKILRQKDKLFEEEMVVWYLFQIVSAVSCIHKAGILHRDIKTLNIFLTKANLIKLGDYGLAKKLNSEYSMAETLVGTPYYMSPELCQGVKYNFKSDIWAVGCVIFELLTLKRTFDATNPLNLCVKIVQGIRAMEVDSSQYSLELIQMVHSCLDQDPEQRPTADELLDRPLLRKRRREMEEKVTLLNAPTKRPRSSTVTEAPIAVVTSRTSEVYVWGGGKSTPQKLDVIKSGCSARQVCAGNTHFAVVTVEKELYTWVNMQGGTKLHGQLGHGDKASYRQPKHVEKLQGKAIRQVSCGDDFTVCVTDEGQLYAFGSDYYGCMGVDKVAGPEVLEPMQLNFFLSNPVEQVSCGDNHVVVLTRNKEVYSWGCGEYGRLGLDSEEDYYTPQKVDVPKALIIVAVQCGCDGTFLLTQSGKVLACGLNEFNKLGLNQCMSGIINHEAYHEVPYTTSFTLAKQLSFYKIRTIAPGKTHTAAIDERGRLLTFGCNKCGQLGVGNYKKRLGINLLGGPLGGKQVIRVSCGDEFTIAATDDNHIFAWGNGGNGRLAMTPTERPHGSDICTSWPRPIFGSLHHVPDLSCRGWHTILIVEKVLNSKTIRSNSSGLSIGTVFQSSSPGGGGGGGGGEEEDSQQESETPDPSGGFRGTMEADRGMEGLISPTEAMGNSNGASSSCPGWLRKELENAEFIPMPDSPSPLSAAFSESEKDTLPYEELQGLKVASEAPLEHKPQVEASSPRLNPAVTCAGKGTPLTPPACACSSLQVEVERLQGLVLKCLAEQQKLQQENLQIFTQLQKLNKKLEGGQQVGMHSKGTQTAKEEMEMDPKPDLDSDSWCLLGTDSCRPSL
Chain of ACVRL1 (P37023 whole entry): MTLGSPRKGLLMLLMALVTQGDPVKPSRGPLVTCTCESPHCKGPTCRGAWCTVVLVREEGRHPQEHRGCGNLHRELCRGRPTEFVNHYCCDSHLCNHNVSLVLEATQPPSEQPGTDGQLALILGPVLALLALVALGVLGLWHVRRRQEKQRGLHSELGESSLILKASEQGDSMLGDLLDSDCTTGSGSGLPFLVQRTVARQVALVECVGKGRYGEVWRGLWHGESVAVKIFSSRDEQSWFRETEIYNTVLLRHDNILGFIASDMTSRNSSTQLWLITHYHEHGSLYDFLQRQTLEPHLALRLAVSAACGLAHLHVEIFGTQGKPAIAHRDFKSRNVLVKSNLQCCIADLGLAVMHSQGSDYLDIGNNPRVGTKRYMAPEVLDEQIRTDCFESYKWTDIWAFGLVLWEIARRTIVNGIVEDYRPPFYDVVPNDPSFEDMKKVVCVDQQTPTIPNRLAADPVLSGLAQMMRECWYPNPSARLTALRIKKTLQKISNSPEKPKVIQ
Chain of NEK6 (Q9HC98 whole entry): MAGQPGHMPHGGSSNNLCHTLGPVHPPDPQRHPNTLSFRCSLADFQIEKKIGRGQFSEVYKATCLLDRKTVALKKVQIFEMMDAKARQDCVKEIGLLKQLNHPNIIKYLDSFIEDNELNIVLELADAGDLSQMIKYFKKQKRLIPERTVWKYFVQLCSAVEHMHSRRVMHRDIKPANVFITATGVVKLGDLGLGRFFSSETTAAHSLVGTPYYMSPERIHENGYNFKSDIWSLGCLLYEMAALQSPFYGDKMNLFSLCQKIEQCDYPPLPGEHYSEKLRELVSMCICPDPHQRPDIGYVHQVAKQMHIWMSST

SMILES | remaining binding at 10 µM [1] | remaining binding at 10 µM [2] | remaining binding at 10 µM [3] | remaining binding at 10 µM [4] | remaining binding at 10 µM [5] | remaining binding at 10 µM [6] | remaining binding at 10 µM [7] | remaining binding at 10 µM [8] | remaining binding at 10 µM [9] | remaining binding at 10 µM [10] | remaining binding at 10 µM [11] | remaining binding at 10 µM [12] | remaining binding at 10 µM [13] | remaining binding at 10 µM [14] | remaining binding at 10 µM [15] | remaining binding at 10 µM [16] | remaining binding at 10 µM [17] | remaining binding at 10 µM [18] | remaining binding at 10 µM [19] | remaining binding at 10 µM [20] | further results
COc1ccc(-c2cnccc2-c2cnc(NC(=O)C(C)C)s2)c(C(F)(F)F)c1 [CRT0105446, N-{5-[3-(4-Methoxy-2-trifluoromethyl-phenyl)-pyridin-4-yl]-hiazol-2-yl}-isobutyramide] | 89% | 100% | 100% | 92% | 95% | 70% | 82% | 97% | 83% | 96% | 100% | 92% | 86% | 100% | 82% | 66% | 72% | 100% | 100% | 100% | remaining binding at 10 µM [21]: 78%; remaining binding at 10 µM [22]: 100%; remaining binding at 10 µM [23]: 61%
Cc1ccc(-c2cnccc2-c2cnc(Nc3ccc(O)cc3)s2)c(Cl)c1 [CRT0105950, 4-{5-[3-(2-Chloro-4-methyl-phenyl)-pyridin-4-yl]-thiazol-2-ylamino}-phenol] | 10% | 100% | 33% | 42% | 100% | 1% | 15% | 100% | 27% | 28% | 100% | 96% | 89% | 100% | 80% | 48% | 25% | 100% | 22% | 100% | remaining binding at 10 µM [21]: 7.1%; remaining binding at 10 µM [22]: 86%; remaining binding at 10 µM [23]: 26%
